Test results reported in patent US20250270209A1 (INTERLINE THERAPEUTICS, INC., priority 2022, published 2025).

Columns and labels:
[1] = target: T1, wild type LRRK2 overexpressed in recombinant HEK-293T cells (Homo sapiens, UniProt Q5S007); assay: pS935 LRRK2 Cell Assay (HTRF, phospho-LRRK2 Ser935); assay type: cell-based; conditions: LRRK2 Inhibition, Table 8, 2 hours compound incubation
T1 construct: host or cells: HEK293T (transient transfection with pCMV-LRRK2 WT plasmid)
Summary of the method: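 Phospho-Ser935 LRRK2 measured by two-antibody HTRF (Eu-cryptate donor, d2 acceptor; 665/615 nm ratio) after overnight detection at 23° C. Before lysis, transiently LRRK2-transfected HEK-293T cells were exposed 2 h at 37° C to a 9-point, 3-fold series from 10 μM, with DMSO at 0.2%.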

[2] = target: LRRK2 wild type enzyme (Homo sapiens, UniProt Q5S007); assay: Biochemical Assay: LRRK2 TR-FRET (LanthaScreen) kinase assay with LRRKtide substrate; conditions: LRRK2 Inhibition, Table 8
Summary of the method: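 TR-FRET detection (Tb-labelled phospho-LRRKtide antibody, EDTA stop, 30 min) followed a 120 min, 23 °C reaction of 3 nM wild-type human LRRK2 with LRRKtide (400 nM) and ATP (25 μM) in Tris pH 8.0. Compounds: 11-point 3-fold series from 10 μM, 15 min enzyme preincubation.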

T1 sequence (Q5S007 whole entry): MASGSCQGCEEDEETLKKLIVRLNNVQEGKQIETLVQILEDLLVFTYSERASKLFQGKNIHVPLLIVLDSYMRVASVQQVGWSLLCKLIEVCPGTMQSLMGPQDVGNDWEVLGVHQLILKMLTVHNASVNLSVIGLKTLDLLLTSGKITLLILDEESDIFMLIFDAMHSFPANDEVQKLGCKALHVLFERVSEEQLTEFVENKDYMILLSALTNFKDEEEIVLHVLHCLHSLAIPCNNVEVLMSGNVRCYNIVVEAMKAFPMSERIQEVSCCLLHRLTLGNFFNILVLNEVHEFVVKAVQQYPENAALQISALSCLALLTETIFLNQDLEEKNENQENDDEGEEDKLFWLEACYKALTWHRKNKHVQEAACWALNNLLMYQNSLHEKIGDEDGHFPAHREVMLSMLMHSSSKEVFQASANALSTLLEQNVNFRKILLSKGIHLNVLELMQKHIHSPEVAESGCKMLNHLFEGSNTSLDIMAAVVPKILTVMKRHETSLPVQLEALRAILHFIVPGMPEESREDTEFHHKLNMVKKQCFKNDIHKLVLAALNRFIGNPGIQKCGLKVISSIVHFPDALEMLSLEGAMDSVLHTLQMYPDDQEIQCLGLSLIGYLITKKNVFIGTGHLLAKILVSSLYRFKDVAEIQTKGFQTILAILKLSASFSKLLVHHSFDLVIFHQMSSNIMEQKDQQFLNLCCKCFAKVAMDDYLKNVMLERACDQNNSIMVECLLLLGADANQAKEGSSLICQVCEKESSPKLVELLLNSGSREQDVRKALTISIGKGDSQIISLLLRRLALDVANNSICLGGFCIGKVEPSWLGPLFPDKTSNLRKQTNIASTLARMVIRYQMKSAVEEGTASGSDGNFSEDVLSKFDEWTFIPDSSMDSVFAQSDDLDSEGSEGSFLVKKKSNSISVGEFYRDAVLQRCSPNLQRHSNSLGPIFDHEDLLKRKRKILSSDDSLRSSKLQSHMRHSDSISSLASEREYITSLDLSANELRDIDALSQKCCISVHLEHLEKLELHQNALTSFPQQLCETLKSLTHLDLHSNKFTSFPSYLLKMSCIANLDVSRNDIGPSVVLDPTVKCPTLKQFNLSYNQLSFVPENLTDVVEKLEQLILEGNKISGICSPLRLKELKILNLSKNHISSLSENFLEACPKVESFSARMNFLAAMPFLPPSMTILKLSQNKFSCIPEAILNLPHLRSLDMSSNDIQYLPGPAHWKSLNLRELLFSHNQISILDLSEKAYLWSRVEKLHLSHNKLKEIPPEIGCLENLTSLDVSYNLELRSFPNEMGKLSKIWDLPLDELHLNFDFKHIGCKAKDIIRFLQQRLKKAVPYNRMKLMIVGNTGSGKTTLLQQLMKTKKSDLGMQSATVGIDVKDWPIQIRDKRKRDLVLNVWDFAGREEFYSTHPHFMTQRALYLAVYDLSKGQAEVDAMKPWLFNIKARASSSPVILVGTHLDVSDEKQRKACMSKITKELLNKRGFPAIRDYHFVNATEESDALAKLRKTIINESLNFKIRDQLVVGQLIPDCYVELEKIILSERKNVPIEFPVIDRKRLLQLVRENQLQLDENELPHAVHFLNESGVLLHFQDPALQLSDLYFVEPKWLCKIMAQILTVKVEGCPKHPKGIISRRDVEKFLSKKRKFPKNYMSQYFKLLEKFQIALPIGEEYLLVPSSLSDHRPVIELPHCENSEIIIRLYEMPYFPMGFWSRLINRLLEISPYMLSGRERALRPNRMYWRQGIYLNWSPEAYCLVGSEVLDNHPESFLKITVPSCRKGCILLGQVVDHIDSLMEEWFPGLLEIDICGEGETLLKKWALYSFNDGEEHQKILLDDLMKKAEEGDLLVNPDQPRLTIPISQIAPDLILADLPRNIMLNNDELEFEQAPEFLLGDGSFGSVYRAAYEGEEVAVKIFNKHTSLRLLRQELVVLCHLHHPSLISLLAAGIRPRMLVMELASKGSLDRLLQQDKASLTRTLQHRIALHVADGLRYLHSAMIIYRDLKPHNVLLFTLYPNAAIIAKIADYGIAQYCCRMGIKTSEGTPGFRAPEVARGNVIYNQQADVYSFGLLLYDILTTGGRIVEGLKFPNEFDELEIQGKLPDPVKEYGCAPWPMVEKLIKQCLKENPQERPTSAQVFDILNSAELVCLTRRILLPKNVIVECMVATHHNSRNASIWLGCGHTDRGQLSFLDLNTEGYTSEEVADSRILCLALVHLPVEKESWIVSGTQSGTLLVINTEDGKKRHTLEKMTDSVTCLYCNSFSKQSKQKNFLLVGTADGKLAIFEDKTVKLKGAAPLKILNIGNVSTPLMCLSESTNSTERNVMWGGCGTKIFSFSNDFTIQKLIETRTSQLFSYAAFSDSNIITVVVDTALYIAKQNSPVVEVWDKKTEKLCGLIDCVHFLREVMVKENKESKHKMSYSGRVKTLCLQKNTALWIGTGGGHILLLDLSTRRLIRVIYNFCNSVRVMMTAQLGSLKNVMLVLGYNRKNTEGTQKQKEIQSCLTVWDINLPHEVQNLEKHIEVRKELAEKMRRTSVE
Sequence of LRRK2 wild type enzyme (Q5S007 whole entry): as above

SMILES	IC50 [1] [nM]	IC50 [2] [nM]
Cc1ccnc(C)c1NC(=O)Cc1nc2cnc3ccc(Cl)cc3c2n1[C@@H]1CCO[C@H](C)C1 [Compound 210, N-(2,4-dimethyl-3-pyridyl){3-[(2R,4R)-2-methyltetrahydro-2H-pyran-4-yl]-12-chloro-3,5,8-triazatricyclo[7.4.0.0^2,6]trideca-1,4,6,8,10,12-hexaen-4-yl}acetamide]	7.83	0.377
C[C@@H]1C[C@H](n2c(CC(=O)Nc3cncnc3O)nc3cnc4ccc(C#N)cc4c32)CCO1 [Compound 211, N-(4-hydroxy-5-pyrimidinyl){3-[(2R,4R)-2-methyltetrahydro-2H-pyran-4-yl]-12-cyano-3,5,8-triazatricyclo[7.4.0.0^2,6]trideca-1,4,6,8,10,12-hexaen-4-yl}acetamide]	1690	0.484
C[C@@H]1C[C@H](n2c(CC(=O)Nc3ccn(C)c(=O)c3)nc3cnc4ccc(Cl)cc4c32)CCO1 [Compound 212, N-(1-methyl-2-oxo-1,2-dihydro-4-pyridyl){3-[(2R,4R)-2-methyltetrahydro-2H-pyran-4-yl]-12-chloro-3,5,8-triazatricyclo[7.4.0.0^2,6]trideca-1,4,6,8,10,12-hexaen-4-yl}acetamide]	11.5	0.331
COc1cc(C2CC2)ncc1NC(=O)Cc1nc2cnc3ccc(C#N)cc3c2n1[C@@H]1CCO[C@H](C)C1 [Compound 213, N-(6-cyclopropyl-4-methoxy-3-pyridyl){3-[(2R,4R)-2-methyltetrahydro-2H-pyran-4-yl]-12-cyano-3,5,8-triazatricyclo[7.4.0.0^2,6]trideca-1,4,6,8,10,12-hexaen-4-yl}acetamide]	4.01	0.404
Cc1cc(NC(=O)Cc2nc3cnc4ccc(C#N)cc4c3n2[C@@H]2CCO[C@H](C)C2)c(=O)n(C)n1 [Compound 214, N-(2-methyl-6-methyl-3-oxo-2,3-dihydro-4-pyridazinyl){3-[(2R,4R)-2-methyltetrahydro-2H-pyran-4-yl]-12-cyano-3,5,8-triazatricyclo[7.4.0.0^2,6]trideca-1,4,6,8,10,12-hexaen-4-yl}acetamide]	10.3	0.294
C[C@@H]1C[C@H](n2c(CC(=O)Nc3ccnn(C)c3=O)nc3cnc4ccc(C#N)cc4c32)CCO1 [Compound 215, N-(2-methyl-3-oxo-2,3-dihydro-4-pyridazinyl){3-[(2R,4R)-2-methyltetrahydro-2H-pyran-4-yl]-12-cyano-3,5,8-triazatricyclo[7.4.0.0^2,6]trideca-1,4,6,8,10,12-hexaen-4-yl}acetamide]	5.85	0.438
Cc1ncncc1NC(=O)Cc1nc2cnc3ccc(C#N)cc3c2n1[C@@H]1CCO[C@H](C)C1 [Compound 216, N-(4-methyl-5-pyrimidinyl){3-[(2R,4R)-2-methyltetrahydro-2H-pyran-4-yl]-12-cyano-3,5,8-triazatricyclo[7.4.0.0^2,6]trideca-1,4,6,8,10,12-hexaen-4-yl}acetamide]	12.4	0.422
Cc1nc(C)c(NC(=O)Cc2nc3cnc4ccc(Cl)cc4c3n2[C@@H]2CCO[C@H](C)C2)c(C)n1 [Compound 217, N-(2,4,6-trimethyl-5-pyrimidinyl){3-[(2R,4R)-2-methyltetrahydro-2H-pyran-4-yl]-12-chloro-3,5,8-triazatricyclo[7.4.0.0^2,6]trideca-1,4,6,8,10,12-hexaen-4-yl}acetamide]	5.53	0.294
C[C@@H]1C[C@H](n2c(CC(=O)Nc3cccnc3O)nc3cnc4ccc(C#N)cc4c32)CCO1 [Compound 218, N-(2-hydroxy-3-pyridyl){3-[(2R,4R)-2-methyltetrahydro-2H-pyran-4-yl]-12-cyano-3,5,8-triazatricyclo[7.4.0.0^2,6]trideca-1,4,6,8,10,12-hexaen-4-yl}acetamide]	83.5	0.45
C[C@@H]1C[C@H](n2c(CC(=O)Nc3ccc(=O)n(C)c3)nc3cnc4ccc(Cl)cc4c32)CCO1 [Compound 219, N-(1-methyl-6-oxo-1,6-dihydro-3-pyridyl){3-[(2R,4R)-2-methyltetrahydro-2H-pyran-4-yl]-12-chloro-3,5,8-triazatricyclo[7.4.0.0^2,6]trideca-1,4,6,8,10,12-hexaen-4-yl}acetamide]	15.8	0.232
C[C@@H]1C[C@H](n2c(CC(=O)Nc3cnc(C(F)(F)F)n(C)c3=O)nc3cnc4ccc(C#N)cc4c32)CCO1 [Compound 220, N-[1-methyl-6-oxo-2-(trifluoromethyl)-1,6-dihydro-5-pyrimidinyl]{3-[(2R,4R)-2-methyltetrahydro-2H-pyran-4-yl]-12-cyano-3,5,8-triazatricyclo[7.4.0.0^2,6]trideca-1,4,6,8,10,12-hexaen-4-yl}acetamide]	4.25	0.447
C[C@@H]1C[C@H](n2c(CC(=O)Nc3ccc(C(F)(F)F)n(C)c3=O)nc3cnc4ccc(C#N)cc4c32)CCO1 [Compound 221, N-[1-methyl-2-oxo-6-(trifluoromethyl)-1,2-dihydro-3-pyridyl]{3-[(2R,4R)-2-methyltetrahydro-2H-pyran-4-yl]-12-cyano-3,5,8-triazatricyclo[7.4.0.0^2,6]trideca-1,4,6,8,10,12-hexaen-4-yl}acetamide]	5.77	0.526
COc1nnccc1NC(=O)Cc1nc2cnc3ccc(C#N)cc3c2n1[C@@H]1CCO[C@H](C)C1 [Compound 222, N-(3-methoxy-4-pyridazinyl){3-[(2R,4R)-2-methyltetrahydro-2H-pyran-4-yl]-12-cyano-3,5,8-triazatricyclo[7.4.0.0^2,6]trideca-1,4,6,8,10,12-hexaen-4-yl}acetamide]	2.9	0.263
C[C@@H]1C[C@H](n2c(CC(=O)Nc3cncn(C)c3=O)nc3cnc4ccc(C#N)cc4c32)CCO1 [Compound 223, N-(1-methyl-6-oxo-1,6-dihydro-5-pyrimidinyl){3-[(2R,4R)-2-methyltetahydro-2H-pyran-4-yl]-12-cyano-3,5,8-triazatricyclo[7.4.0.0^2,6]trideca-1,4,6,8,10,12-hexaen-4-yl}acetamide]	10.8	0.316
COc1c(NC(=O)Cc2nc3cnc4ccc(C#N)cc4c3n2[C@@H]2CCO[C@H](C)C2)cnn1C [Compound 224, N-(5-methoxy-1-methyl-4-pyrazolyl){3-[(2R,4R)-2-methyltetrahydro-2H-pyran-4-yl]-12-cyano-3,5,8-triazatricyclo[7.4.0.0^2,6]trideca-1,4,6,8,10,12-hexaen-4-yl}acetamide]	87.9	1.42
C[C@@H]1C[C@H](n2c(CC(=O)Nc3cccn(CCO)c3=O)nc3cnc4ccc(C#N)cc4c32)CCO1 [Compound 225, N-[1-(2-hydroxyethyl)-2-oxo-1,2-dihydro-3-pyridyl]{3-[(2R,4R)-2-methyltetrahydro-2H-pyran-4-yl]-12-cyano-3,5,8-triazatricyclo[7.4.0.0^2,6]trideca-1,4,6,8,10,12-hexaen-4-yl}acetamide]	104	0.388
COc1cc(C)ncc1NC(=O)Cc1nc2cnc3ccc(C#N)cc3c2n1[C@@H]1CCO[C@H](C)C1 [Compound 226, N-(4-methoxy-6-methyl-3-pyridyl){3-[(2R,4R)-2-methyltetrahydro-2H-pyran-4-yl]-12-cyano-3,5,8-triazatricyclo[7.4.0.0^2,6]trideca-1,4,6,8,10,12-hexaen-4-yl}acetamide]	5.44	0.461
COc1ccnc(C)c1NC(=O)Cc1nc2cnc3ccc(C#N)cc3c2n1[C@@H]1CCO[C@H](C)C1 [Compound 227, N-(4-methoxy-2-methyl-3-pyridyl){3-[(2R,4R)-2-methyltetrahydro-2H-pyran-4-yl]-12-cyano-3,5,8-triazatricyclo[7.4.0.0^2,6]trideca-1,4,6,8,10,12-hexaen-4-yl}acetamide]	14.4	0.359
COc1cc(C(F)(F)F)ncc1NC(=O)Cc1nc2cnc3ccc(C#N)cc3c2n1[C@@H]1CCO[C@H](C)C1 [Compound 228, N-[4-methoxy-6-(trifluoromethyl)-3-pyridyl]{3-[(2R,4R)-2-methyltetrahydro-2H-pyran-4-yl]-12-cyano-3,5,8-triazatricyclo[7.4.0.0^2,6]trideca-1,4,6,8,10,12-hexaen-4-yl}acetamide]	3.17	0.36
COc1nn(C)cc1NC(=O)Cc1nc2cnc3ccc(C#N)cc3c2n1[C@@H]1CCO[C@H](C)C1 [Compound 229, N-(3-methoxy-1-methyl-4-pyrazolyl){3-[(2R,4R)-2-methyltetrahydro-2H-pyran-4-yl]-12-cyano-3,5,8-triazatricyclo[7.4.0.0^2,6]trideca-1,4,6,8,10,12-hexaen-4-yl}acetamide]	6.62	0.316
COc1cc(F)ncc1NC(=O)Cc1nc2cnc3ccc(C#N)cc3c2n1[C@@H]1CCO[C@H](C)C1 [Compound 230, N-(6-fluoro-4-methoxy-3-pyridyl){3-[(2R,4R)-2-methyltetrahydro-2H-pyran-4-yl]-12-cyano-3,5,8-triazatricyclo[7.4.0.0^2,6]trideca-1,4,6,8,10,12-hexaen-4-yl}acetamide]	4.9	0.442
Cc1nn(C)cc1NC(=O)Cc1nc2cnc3ccc(C#N)cc3c2n1[C@@H]1CCO[C@H](C)C1 [Compound 231, N-(1-methyl-3-methyl-4-pyrazolyl){3-[(2R,4R)-2-methyltetrahydro-2H-pyran-4-yl]-12-cyano-3,5,8-triazatricyclo[7.4.0.0^2,6]trideca-1,4,6,8,10,12-hexaen-4-yl}acetamide]	13.6	0.621
